Measurements published in the supplement of paper PMC11208160.

Assay: recombinant UMI read abundance after kanamycin selection (control-corrected) (log10(CPM+1)); higher = more efficient recombination; extreme values may be limits of the assay; sequences stand for … in AGTGCAGAGAAAATCGGCCAGTTTTCTCTGCCTGCAGTCCGCATGCCGTGGGACCCCTTGGGTTCTAACCTGTTGCCTAGATTTATGCAGCGGACTGCCTTTCTCCCAAAGTGATAAACCGG…AGGTTGGTTTCACT; site = the 11-nt donor
Procedure, shortened: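 Values, expressed as log10(CPM+1), derive from recombinant UMI counts converted to CPM, averaged across replicates and scaled by control-derived factors. Plating was with IPTG (0.07 mM) plus kanamycin or unselected, two replicates each. The screen pooled donor and donor-binding-loop pairs for the IS621 bridge recombinase in Escherichia coli.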
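Further: IS621 bridge recombinase in Escherichia coli cells against a fixed T5 target plasmid.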

ATCCAAGCATGGACCGGTTTTCCCGGTAATCCGTATTTGAG (site ATCCAAACTCT)
recombinant UMI read abundance (log10): 1.09

ATCCAAGCATGGACCGGTTTTCCCGGTAATCCGTATTTGAG (site ATCCAACCTCT)
recombinant UMI read abundance (log10): 0.00996

ATCCAAGCATGGACCGGTTTTCCCGGTAATCCGTATTTGAG (site ATCCAAGCTAT)
recombinant UMI read abundance (log10): 1.64

ATCCAAGCATGGACCGGTTTTCCCGGTAATCCGTATTTGAG (site ATCCAAGCTCA)
recombinant UMI read abundance (log10): 0.209

ATCCAAGCATGGACCGGTTTTCCCGGTAATCCGTATTTGAG (site ATCCAAGCTCC)
recombinant UMI read abundance (log10): 0.0127

ATCCAAGCATGGACCGGTTTTCCCGGTAATCCGTATTTGAG (site ATCCAAGCTCG)
recombinant UMI read abundance (log10): 0.141

ATCCAAGCATGGACCGGTTTTCCCGGTAATCCGTATTTGAG (site ATCCAAGCTCT)
recombinant UMI read abundance (log10): 0.799

ATCCAAGCATGGACCGGTTTTCCCGGTAATCCGTATTTGAG (site ATCCAAGCTGT)
recombinant UMI read abundance (log10): 0

ATCCAAGCATGGACCGGTTTTCCCGGTAATCCGTATTTGAG (site ATCCAAGCTTT)
recombinant UMI read abundance (log10): 0.757

ATCCAAGCATGGACCGGTTTTCCCGGTAATCCGTATTTGAG (site ATCCAATCTCT)
recombinant UMI read abundance (log10): 0.773

ATCCAAGCATGGACCGGTTTTCCCGGTAATCCGTATTTGAG (site ATCCACGCTCT)
recombinant UMI read abundance (log10): 0.0466

ATCCAAGCATGGACCGGTTTTCCCGGTAATCCGTATTTGAG (site ATCCAGGCTCT)
recombinant UMI read abundance (log10): 0.356

ATCCAAGCATGGACCGGTTTTCCCGGTAATCCGTATTTGAG (site ATCCATGCTCT)
recombinant UMI read abundance (log10): 0.0106

ATCCAAGCATGGACCGGTTTTCCCGGTAATCCGTATTTGAG (site ATCCCAGCTCT)
recombinant UMI read abundance (log10): 0.0104

ATCCAAGCATGGACCGGTTTTCCCGGTAATCCGTATTTGAG (site ATCCGAGCTCT)
recombinant UMI read abundance (log10): 0.00838

ATCCAAGCATGGACCGGTTTTCCCGGTAATCCGTATTTGAG (site ATCCTAGCTCT)
recombinant UMI read abundance (log10): 0.357

ATCCAAGCATGGACCGGTTTTCCCGGTAATCCGTATTTGAG (site ATCGAAGCTCT)
recombinant UMI read abundance (log10): 0.00681

ATCCAAGCATGGACCGGTTTTCCCGGTAATCCGTATTTGAG (site ATCTAAGCTCT)
recombinant UMI read abundance (log10): 0.231

ATCCAAGCATGGACCGGTTTTCCCGGTAATCCGTATTTGAG (site ATGCAAGCTCT)
recombinant UMI read abundance (log10): 0.0198

ATCCAAGCATGGACCGGTTTTCCCGGTAATCCGTATTTGAG (site ATTCAAGCTCT)
recombinant UMI read abundance (log10): 0.0155

ATCCAAGCATGGACCGGTTTTCCCGGTAATCCGTATTTGAG (site CTCCAAGCTCT)
recombinant UMI read abundance (log10): 0.656

ATCCAAGCATGGACCGGTTTTCCCGGTAATCCGTATTTGAG (site GTCCAAGCTCT)
recombinant UMI read abundance (log10): 0.00952

ATCCAAGCATGGACCGGTTTTCCCGGTAATCCGTATTTGAG (site TTCCAAGCTCT)
recombinant UMI read abundance (log10): 1.17

ATCCAAGCATGGACCGGTTTTCCCGGTAATCCGTATTTGAT (site ATCCAAGCTAT)
recombinant UMI read abundance (log10): 1.36

ATCCAAGCATGGACCGGTTTTCCCGGTAATCCGTATTTGAT (site ATCCAAGCTCT)
recombinant UMI read abundance (log10): 0.233

ATCCAAGCATGGACCGGTTTTCCCGGTAATCCGTATTTGAT (site ATCCAAGCTGT)
recombinant UMI read abundance (log10): 1.37

ATCCAAGCATGGACCGGTTTTCCCGGTAATCCGTATTTGAT (site ATCCAAGCTTT)
recombinant UMI read abundance (log10): 0.0123

ATCCAAGCATGGACCGGTTTTCCCGGTAATCCGTATTTGCG (site ATCCAAGCTCA)
recombinant UMI read abundance (log10): 0.0396

ATCCAAGCATGGACCGGTTTTCCCGGTAATCCGTATTTGCG (site ATCCAAGCTCC)
recombinant UMI read abundance (log10): 0.00949

ATCCAAGCATGGACCGGTTTTCCCGGTAATCCGTATTTGCG (site ATCCAAGCTCG)
recombinant UMI read abundance (log10): 0.262

ATCCAAGCATGGACCGGTTTTCCCGGTAATCCGTATTTGCG (site ATCCAAGCTCT)
recombinant UMI read abundance (log10): 0.689

ATCCATGCATGGACCGGTTTTCCCGGTAATCCGTATTTGAG (site ATCCAAGCTCT)
recombinant UMI read abundance (log10): 0.0773

ATCCATGCATGGACCGGTTTTCCCGGTAATCCGTATTTGAG (site ATCCACGCTCT)
recombinant UMI read abundance (log10): 0.0124

ATCCATGCATGGACCGGTTTTCCCGGTAATCCGTATTTGAG (site ATCCAGGCTCT)
recombinant UMI read abundance (log10): 0.0333

ATCCATGCATGGACCGGTTTTCCCGGTAATCCGTATTTGAG (site ATCCATGCTCT)
recombinant UMI read abundance (log10): 1.05

ATCCGCGCATGGACCGGTTTTCCCGGTAATCCGTATTTGCG (site ATCCGCGCTCG)
recombinant UMI read abundance (log10): 0.503

ATCCTAGCATGGACCGGTTTTCCCGGTAATCCGTATTTGTA (site ATCCTAGCTTA)
recombinant UMI read abundance (log10): 1.58

ATCCTATCATGGACCGGTTTTCCCGGTAATCCGTATTTGAG (site ATCCTATCTCT)
recombinant UMI read abundance (log10): 0.448

ATCCTTCCATGGACCGGTTTTCCCGGTAATCCGTATTTGCC (site ATCCTTCCTGG)
recombinant UMI read abundance (log10): 0

ATCGAGACATGGACCGGTTTTCCCGGTAATCCGTATTTGGT (site ATAGAGACTAC)
recombinant UMI read abundance (log10): 1.76

ATCGAGACATGGACCGGTTTTCCCGGTAATCCGTATTTGGT (site ATCGAGACTAC)
recombinant UMI read abundance (log10): 1.01

ATCGAGACATGGACCGGTTTTCCCGGTAATCCGTATTTGGT (site ATGGAGACTAC)
recombinant UMI read abundance (log10): 0.604

ATCGAGACATGGACCGGTTTTCCCGGTAATCCGTATTTGGT (site ATTGAGACTAC)
recombinant UMI read abundance (log10): 0.017

ATCGCGGCATGGACCGGTTTTCCCGGTAATCCGTATTTGTC (site ATCGCGGCTGA)
recombinant UMI read abundance (log10): 2.69

ATCTATACATGGACCGGTTTTCCCGGTAATCCGTATTTGAA (site ATCTATACTAT)
recombinant UMI read abundance (log10): 0.0589

ATCTATACATGGACCGGTTTTCCCGGTAATCCGTATTTGAA (site ATCTATACTCT)
recombinant UMI read abundance (log10): 0.0128

ATCTATACATGGACCGGTTTTCCCGGTAATCCGTATTTGAA (site ATCTATACTGT)
recombinant UMI read abundance (log10): 0

ATCTATACATGGACCGGTTTTCCCGGTAATCCGTATTTGAA (site ATCTATACTTT)
recombinant UMI read abundance (log10): 1.29

ATCTATACATGGACCGGTTTTCCCGGTAATCCGTATTTGAC (site AACTATACTGT)
recombinant UMI read abundance (log10): 0.0062

ATCTATACATGGACCGGTTTTCCCGGTAATCCGTATTTGAC (site ACCTATACTGT)
recombinant UMI read abundance (log10): 0.944

ATCTATACATGGACCGGTTTTCCCGGTAATCCGTATTTGAC (site AGCTATACTGT)
recombinant UMI read abundance (log10): 1.66

ATCTATACATGGACCGGTTTTCCCGGTAATCCGTATTTGAC (site ATATATACTGT)
recombinant UMI read abundance (log10): 0.408

ATCTATACATGGACCGGTTTTCCCGGTAATCCGTATTTGAC (site ATCAATACTGT)
recombinant UMI read abundance (log10): 0

ATCTATACATGGACCGGTTTTCCCGGTAATCCGTATTTGAC (site ATCCATACTGT)
recombinant UMI read abundance (log10): 1.7

ATCTATACATGGACCGGTTTTCCCGGTAATCCGTATTTGAC (site ATCGATACTGT)
recombinant UMI read abundance (log10): 0

ATCTATACATGGACCGGTTTTCCCGGTAATCCGTATTTGAC (site ATCTAAACTGT)
recombinant UMI read abundance (log10): 0

ATCTATACATGGACCGGTTTTCCCGGTAATCCGTATTTGAC (site ATCTACACTGT)
recombinant UMI read abundance (log10): 0.552

ATCTATACATGGACCGGTTTTCCCGGTAATCCGTATTTGAC (site ATCTAGACTGT)
recombinant UMI read abundance (log10): 0

ATCTATACATGGACCGGTTTTCCCGGTAATCCGTATTTGAC (site ATCTATACTAT)
recombinant UMI read abundance (log10): 0.00827

ATCTATACATGGACCGGTTTTCCCGGTAATCCGTATTTGAC (site ATCTATACTCT)
recombinant UMI read abundance (log10): 0.011

ATCTATACATGGACCGGTTTTCCCGGTAATCCGTATTTGAC (site ATCTATACTGA)
recombinant UMI read abundance (log10): 0.0717

ATCTATACATGGACCGGTTTTCCCGGTAATCCGTATTTGAC (site ATCTATACTGC)
recombinant UMI read abundance (log10): 0

ATCTATACATGGACCGGTTTTCCCGGTAATCCGTATTTGAC (site ATCTATACTGG)
recombinant UMI read abundance (log10): 0

ATCTATACATGGACCGGTTTTCCCGGTAATCCGTATTTGAC (site ATCTATACTGT)
recombinant UMI read abundance (log10): 2.44

ATCTATACATGGACCGGTTTTCCCGGTAATCCGTATTTGAC (site ATCTATACTTT)
recombinant UMI read abundance (log10): 0.0131

ATCTATACATGGACCGGTTTTCCCGGTAATCCGTATTTGAC (site ATCTATCCTGT)
recombinant UMI read abundance (log10): 0

ATCTATACATGGACCGGTTTTCCCGGTAATCCGTATTTGAC (site ATCTATGCTGT)
recombinant UMI read abundance (log10): 0

ATCTATACATGGACCGGTTTTCCCGGTAATCCGTATTTGAC (site ATCTATTCTGT)
recombinant UMI read abundance (log10): 0.327

ATCTATACATGGACCGGTTTTCCCGGTAATCCGTATTTGAC (site ATCTCTACTGT)
recombinant UMI read abundance (log10): 0

ATCTATACATGGACCGGTTTTCCCGGTAATCCGTATTTGAC (site ATCTGTACTGT)
recombinant UMI read abundance (log10): 0

ATCTATACATGGACCGGTTTTCCCGGTAATCCGTATTTGAC (site ATCTTTACTGT)
recombinant UMI read abundance (log10): 0

ATCTATACATGGACCGGTTTTCCCGGTAATCCGTATTTGAC (site ATGTATACTGT)
recombinant UMI read abundance (log10): 1.03

ATCTATACATGGACCGGTTTTCCCGGTAATCCGTATTTGAC (site ATTTATACTGT)
recombinant UMI read abundance (log10): 0

ATCTATACATGGACCGGTTTTCCCGGTAATCCGTATTTGAC (site CTCTATACTGT)
recombinant UMI read abundance (log10): 2.17

ATCTATACATGGACCGGTTTTCCCGGTAATCCGTATTTGAC (site GTCTATACTGT)
recombinant UMI read abundance (log10): 0.424
